# Earlier results, collected in patent US20030103955A1 (priority 2000, published 2003).
# Key:
# [1] = octanol/buffer phosphate, ph=7.4
# cycloxygenase = conditions: with reduction of production of tissue prostaglandines PGF2 and PGE2
# [2] = system: arthritis induced by adjuvant; conditions: compared with aspirin
structure (smiles),measurement,setting,value
O=C(O)Cc1ccccc1Nc1c(Cl)cccc1Cl [Diclofenac],partition coefficient,[1],13.0
same,activity of cycloxygenase,cycloxygenase,inhibits the activity of cycloxygenase
same,anti-inflammatory effect,[2],higher than that of aspirin
